The assay has as its target MAP kinase p38 (Homo sapiens, UniProt O15264+Q15759+Q16539+P53778). The experiment in a line: Inhibition of TNF-alpha production by lipopolysaccharide-stimulated human peripheral blood mononuclear cells. It counts as functional.
As to `Nc1cc(OCc2ccccc2)c2c(-c3ccncc3)c(-c3ccc(F)cc3)[nH]c2n1`, the concentration for half-maximal inhibition (IC50) came to 0.91 nM.
`CCCCOc1cc(N)[nH]c2nc(-c3ccc(F)cc3)c(-c3ccncc3)c1-2` registered a half-inhibitory concentration (IC50) of 4 nM.
`Nc1cc(OCCCc2ccccc2)c2c(-c3ccncc3)c(-c3ccc(F)cc3)[nH]c2n1` yielded a half-maximal inhibitory concentration (IC50) of 9 nM.
As for `COc1cccc(COc2cc(N)[nH]c3nc(-c4ccc(F)cc4)c(-c4ccncc4)c2-3)c1`, the figure is 1.5 nM; as for `Nc1ccc2c(-c3ccncc3)c(-c3ccc(F)cc3)[nH]c2n1`, 37 nM.
